For the assay, the target named is T1, human Nav1.8/b3 (Homo sapiens, UniProt Q9Y5Y9).
T1 construct: expressed in transfected cells; host or cells: CHO
Briefly: Compound Profiling Human NaV1.8/β3 Cell Line—SyncroPatch384PE Assay (automated patch clamp, stably transfected CHO cells). In kind it is cell-based. As to conditions: Nav1.8/b3 CHO cells.

The mark [1] stands for this setting: P1 (IC50, resting state block), P1 measurement, resting state block, holding potential −120 mV, third set of compounds.
Setting [2] is: P2 (IC50, inactivated state block), P2 measurement, inactivated state block, inactivation step −35 mV 10 sec, third set of compounds.
Where [3] appears, read: P1 (IC50, resting state block), P1 measurement, resting state block, holding potential −120 mV, first set of compounds.
The mark [4] stands for this setting: P2 (IC50, inactivated state block), P2 measurement, inactivated state block, inactivation step −35 mV 10 sec, first set of compounds.
Where [5] appears, read: P1 (IC50, resting state block), P1 measurement, resting state block, holding potential −120 mV, fourth set of compounds.
Where [6] appears, read: P2 (IC50, inactivated state block), P2 measurement, inactivated state block, inactivation step −35 mV 10 sec, fourth set of compounds.
Setting [7] is: P1 (IC50, resting state block), P1 measurement, resting state block, holding potential −120 mV, second set of compounds.
Where [8] appears, read: P2 (IC50, inactivated state block), P2 measurement, inactivated state block, inactivation step −35 mV 10 sec, second set of compounds.

Each structure is given as a SMILES string. Where two headings read alike, the source gives them in different places. A value given as a limit tells only on which side of the number the result lay.

T1 sequence (Q9Y5Y9 whole entry): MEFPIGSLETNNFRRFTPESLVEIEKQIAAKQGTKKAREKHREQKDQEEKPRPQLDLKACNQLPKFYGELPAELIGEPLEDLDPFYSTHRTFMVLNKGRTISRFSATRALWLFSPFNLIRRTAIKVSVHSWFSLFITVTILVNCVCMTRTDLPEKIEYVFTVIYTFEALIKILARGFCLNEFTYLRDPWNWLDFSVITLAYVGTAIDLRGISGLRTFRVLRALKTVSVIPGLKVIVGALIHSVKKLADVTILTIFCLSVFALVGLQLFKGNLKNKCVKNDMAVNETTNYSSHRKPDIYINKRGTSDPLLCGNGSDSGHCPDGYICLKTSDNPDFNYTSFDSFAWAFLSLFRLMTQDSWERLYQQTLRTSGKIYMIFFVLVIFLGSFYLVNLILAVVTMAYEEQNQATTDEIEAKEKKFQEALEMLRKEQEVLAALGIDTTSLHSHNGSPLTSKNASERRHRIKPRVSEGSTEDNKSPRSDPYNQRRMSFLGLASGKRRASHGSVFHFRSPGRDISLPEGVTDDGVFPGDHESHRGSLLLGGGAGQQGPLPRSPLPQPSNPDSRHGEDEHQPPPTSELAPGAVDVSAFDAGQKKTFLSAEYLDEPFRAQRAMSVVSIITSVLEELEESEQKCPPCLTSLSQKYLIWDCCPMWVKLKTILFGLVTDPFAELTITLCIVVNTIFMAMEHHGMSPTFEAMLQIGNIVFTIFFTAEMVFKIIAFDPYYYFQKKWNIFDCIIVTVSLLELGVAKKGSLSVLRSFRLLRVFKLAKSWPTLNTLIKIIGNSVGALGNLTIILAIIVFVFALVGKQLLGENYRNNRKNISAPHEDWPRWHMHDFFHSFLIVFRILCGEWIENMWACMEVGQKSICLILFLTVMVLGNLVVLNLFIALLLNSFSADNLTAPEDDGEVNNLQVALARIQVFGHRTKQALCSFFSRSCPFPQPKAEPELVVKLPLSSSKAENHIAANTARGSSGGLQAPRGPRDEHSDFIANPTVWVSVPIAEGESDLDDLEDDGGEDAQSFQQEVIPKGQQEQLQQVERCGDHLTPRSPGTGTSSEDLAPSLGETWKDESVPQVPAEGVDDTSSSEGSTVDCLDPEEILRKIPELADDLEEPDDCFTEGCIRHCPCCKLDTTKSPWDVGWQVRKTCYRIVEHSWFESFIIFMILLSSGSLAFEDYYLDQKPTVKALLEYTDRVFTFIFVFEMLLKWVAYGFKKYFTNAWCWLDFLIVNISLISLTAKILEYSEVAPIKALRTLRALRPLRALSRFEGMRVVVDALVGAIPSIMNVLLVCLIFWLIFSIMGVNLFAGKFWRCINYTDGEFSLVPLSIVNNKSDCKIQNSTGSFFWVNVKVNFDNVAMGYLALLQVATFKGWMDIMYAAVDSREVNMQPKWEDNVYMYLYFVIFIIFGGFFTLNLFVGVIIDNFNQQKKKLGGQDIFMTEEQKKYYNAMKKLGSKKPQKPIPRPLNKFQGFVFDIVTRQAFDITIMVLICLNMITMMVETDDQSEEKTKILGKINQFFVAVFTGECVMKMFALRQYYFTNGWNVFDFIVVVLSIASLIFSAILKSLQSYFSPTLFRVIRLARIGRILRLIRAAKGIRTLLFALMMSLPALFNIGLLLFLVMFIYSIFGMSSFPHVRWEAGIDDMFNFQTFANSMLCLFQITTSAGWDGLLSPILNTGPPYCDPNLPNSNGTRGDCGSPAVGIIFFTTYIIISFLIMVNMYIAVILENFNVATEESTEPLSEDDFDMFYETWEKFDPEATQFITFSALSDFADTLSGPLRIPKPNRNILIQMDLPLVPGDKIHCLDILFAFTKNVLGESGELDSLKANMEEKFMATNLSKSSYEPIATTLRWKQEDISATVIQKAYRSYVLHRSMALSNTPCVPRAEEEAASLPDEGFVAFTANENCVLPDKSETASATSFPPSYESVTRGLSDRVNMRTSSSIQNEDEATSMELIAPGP
T1 sequence (Q9NY72 23-215 partner): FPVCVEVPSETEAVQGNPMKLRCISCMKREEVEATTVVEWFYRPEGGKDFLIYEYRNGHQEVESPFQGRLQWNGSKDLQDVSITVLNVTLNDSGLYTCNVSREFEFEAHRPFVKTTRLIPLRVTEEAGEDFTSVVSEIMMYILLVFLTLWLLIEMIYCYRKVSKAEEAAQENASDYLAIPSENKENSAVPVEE

On to `Cc1nc(F)ccc1Oc1c(C(F)(F)F)ncc(F)c1C(=O)Nc1cccc([S@](C)(=N)=O)c1` [Example 36C, (R)-5-fluoro-3-((6-fluoro-2-methylpyridin-3-yl)oxy)-N-(3-(S-methylsulfonimidoyl)phenyl)-2-(trifluoromethyl)isonicotinamide], for which the IC50 by setting is: under setting [1], > 200 nM; under setting [2], > 200 nM.

Consider `Cc1cc(C#N)ccc1Oc1cc(C(F)(F)F)nnc1C(=O)Nc1cccc(S(C)(=N)=O)c1` (centres unmarked) [Example 39C, 4-(4-cyano-2-methylphenoxy)-N-(3-(S-methylsulfonimidoyl)phenyl)-6-(trifluoromethyl)pyridazine-3-carboxamide], for which the IC50 was > 200 nM under setting [1] and > 200 nM under setting [2].

Regarding `Cc1nc(F)ccc1Oc1cc(C(F)(F)F)c(Cl)cc1C(=O)Nc1ccc(F)c(S(C)(=O)=O)c1` [Example 54A], the concentration for half-maximal inhibition (IC50) under setting [3] is < 5 nM and the half-inhibitory concentration (IC50) under setting [4] was < 5 nM.

On to `Cc1nc(F)ccc1Oc1ncc(C(F)(F)F)c(C)c1C(=O)Nc1ccnc([S@](C)(=N)=O)c1` (single isomer, unassigned) [Example 11C], for which the IC50 reads like this: under setting [1], 5 to 50 nM; under setting [2], 5 to 50 nM.

Consider `Cc1nc(F)ccc1Oc1ncc(C(F)F)c(C)c1C(=O)Nc1ccnc([S@@](C)(=N)=O)c1` [Example 114C], for which the concentration for half-maximal inhibition (IC50) is, setting by setting: under setting [1], > 200 nM; under setting [2], > 200 nM.

As for `CNCC(=O)N=[S@](C)(=O)c1cccc(NC(=O)c2c(Oc3ccc(F)nc3C)ncc(C(F)(F)F)c2C)c1` [Example 1D, (R)-2-((6-fluoro-2-methylpyridin-3-yl)oxy)-4-methyl-N-(3-(S-methyl-N-(methylglycyl)sulfonimidoyl)phenyl)-5-(trifluoromethyl)nicotinamide], the IC50 runs as follows: under setting [5], < 5 nM; under setting [6], < 5 nM.

With `Cc1nc(F)ccc1Oc1ncc(C(F)(F)F)c(C)c1C(=O)Nc1cccc(S(C)(=N)=N)c1` [Example 40C, ((3-(2-((6-fluoro-2-methylpyridin-3-yl)oxy)-4-methyl-5-(trifluoromethyl)nicotinamido)phenyl)(methyl)-l6-sulfanediylidene)diamine], the half-maximal inhibitory concentration (IC50) was < 5 nM under setting [1] and < 5 nM under setting [2].

As to `Cc1nc(F)ccc1Oc1nc(C(F)(F)F)c(Cl)c(C)c1C(=O)Nc1ccc(F)c([S@](C)(=N)=O)c1` [Example 95C], the half-inhibitory concentration (IC50) is < 5 nM under setting [1] and < 5 nM under setting [2].

For `C[S@@](=N)(=O)c1cc(NC(=O)c2c(Oc3ccc(OC(F)(F)F)cc3)cc(C(F)(F)F)c(Cl)c2F)ccn1` [Example 45A], the concentration for half-maximal inhibition (IC50) by setting is: under setting [3], < 5 nM; under setting [4], < 5 nM.

Turning to `Cc1nc(F)ccc1Oc1ccc(C(F)(F)F)c(F)c1C(=O)Nc1cccc([S@@](C)(=O)=NC(=O)[C@@H](C)O)c1` [Example 19B, 2-fluoro-6-((6-fluoro-2-methylpyridin-3-yl)oxy)-N-(3-((R)—N—((R)-2-hydroxypropanoyl)-S-methylsulfonimidoyl)phenyl)-3-(trifluoromethyl)benzamide], the concentration for half-maximal inhibition (IC50) by setting is: under setting [7], < 5 nM; under setting [8], < 5 nM.

Regarding `CC(=O)N=[S@](C)(=O)c1cccc(NC(=O)c2c(Oc3ccc(F)nc3C)ncc(C(F)(F)F)c2C)c1` [Example 3D, (R)—N-(3-(N-acetyl-S-methylsulfonimidoyl)phenyl)-2-((6-fluoro-2-methylpyridin-3-yl)oxy)-4-methyl-5-(trifluoromethyl)nicotinamide], the IC50 is < 5 nM under setting [5] and < 5 nM under setting [6].

Turning to `Cc1nc(F)ccc1Oc1cc(C(F)(F)F)ccc1C(=O)Nc1cccc([S@@](C)(=O)=NC(=O)[C@@H](C)O)c1` [Example 13B, 2-((6-fluoro-2-methylpyridin-3-yl)oxy)-N-(3-((R)—N—((R)-2-hydroxypropanoyl)-S-methylsulfonimidoyl)phenyl)-4-(trifluoromethyl)benzamide], the half-inhibitory concentration (IC50) lay within 5 to 50 nM under setting [7] and 5 to 50 nM under setting [8].

In the case of `Cc1nc(F)ccc1Oc1nnc(-c2ccc3c(c2)OCCO3)c(C)c1C(=O)Nc1cccc([S@](C)(=N)=O)c1` [Example 7C, (R)-6-(2,3-dihydrobenzo[b][1,4]dioxin-6-yl)-3-((6-fluoro-2-methylpyridin-3-yl)oxy)-5-methyl-N-(3-(S-methylsulfonimidoyl)phenyl)pyridazine-4-carboxamide], the IC50 runs as follows: under setting [1], < 5 nM; under setting [2], < 5 nM.

Take `Cc1nc(F)ccc1Oc1cc(C2CC2)c(C(F)(F)F)c(C)c1C(=O)Nc1cccc([S@](C)(=N)=O)c1` [Example 9A, (R)-4-cyclopropyl-6-((6-fluoro-2-methylpyridin-3-yl)oxy)-2-methyl-N-(3-(S-methylsulfonimidoyl)phenyl)-3-(trifluoromethyl)benzamide]: the IC50 was < 5 nM (P1 measurement, resting state block, holding potential −120 mV, first set of compounds, read-out: P1 (IC50, resting state block)) and < 5 nM (P2 measurement, inactivated state block, inactivation step −35 mV 10 sec, first set of compounds, read-out: P2 (IC50, inactivated state block)).

As for `Cc1nc(F)ccc1Oc1cc(C(F)(F)F)c(Cl)cc1C(=O)Nc1ccc(F)c([S@](C)(=N)=O)c1` [Example 71A], the IC50 is, setting by setting: under setting [3], < 5 nM; under setting [4], < 5 nM.

Turning to `Cc1nc(F)ccc1Oc1cc(C(F)(F)F)c(Cl)c(C)c1C(=O)Nc1cccc([S@@](C)(=N)=O)c1` [Example 66A], the half-maximal inhibitory concentration (IC50) by setting is: under setting [3], < 5 nM; under setting [4], < 5 nM.

As to `Cc1nc(F)ccc1Oc1ncc(-c2ccc(F)c(F)c2)c(C)c1C(=O)Nc1cccc(S(C)(=N)=N)c1` [Example 124C], the IC50 lay within 5 to 50 nM under setting [1] and 5 to 50 nM under setting [2].

Turning to `Cc1nc(F)ccc1Oc1nnc(C(F)(F)F)c(C)c1C(=O)Nc1cccc([S@@](C)(=O)=NC(=O)[C@H](C)O)c1` [Example 18D, 3-((6-fluoro-2-methylpyridin-3-yl)oxy)-N-(3-((R)—N—((S)-2-hydroxypropanoyl)-S-methylsulfonimidoyl)phenyl)-5-methyl-6-(trifluoromethyl)pyridazine-4-carboxamide], the IC50 under setting [5] is < 5 nM and the IC50 under setting [6] is < 5 nM.

As to `Cc1nc(F)ccc1Oc1nc(C(F)(F)F)c(Br)c(C)c1C(=O)Nc1cccc([S@@](C)(=O)=NCCN)c1` [Example 96C], the 50% inhibitory concentration (IC50) under setting [1] was < 5 nM and the half-inhibitory concentration (IC50) under setting [2] is < 5 nM.

As for `Cc1nc(F)ccc1Oc1ncc(C(F)(F)F)c(C)c1C(=O)Nc1cccc([S@@](C)(=O)=NC(=O)[C@H]2CCCO2)c1` [Example 14D, 2-((6-fluoro-2-methylpyridin-3-yl)oxy)-4-methyl-N-(3-((R)—S-methyl-N—((R)-tetrahydrofuran-2-carbonyl)sulfonimidoyl)phenyl)-5-(trifluoromethyl)nicotinamide], the IC50 under setting [5] was < 5 nM and the IC50 under setting [6] is < 5 nM.

On to `Cc1nc(F)ccc1Oc1ncc(I)c(C)c1C(=O)Nc1cccc([S@](C)(=N)=O)c1` [Example 122C], for which the IC50 was 5 to 50 nM under setting [1] and 5 to 50 nM under setting [2].

For the compound `Cc1nc(F)ccc1Oc1ccc(C(F)(F)F)c(F)c1C(=O)Nc1cccc([S@](C)(=N)=O)c1` [Example 4A, (R)-2-fluoro-6-((6-fluoro-2-methylpyridin-3-yl)oxy)-N-(3-(S-methylsulfonimidoyl)phenyl)-3-(trifluoromethyl)benzamide], the 50% inhibitory concentration (IC50) runs as follows: under setting [3], < 5 nM; under setting [4], < 5 nM.

With `Cc1nc(F)ccc1Oc1nnc(C(F)(F)F)c(C)c1C(=O)Nc1cccc([S@@](C)(=O)=NC(=O)[C@@H](C)O)c1` [Example 19D, 3-((6-fluoro-2-methylpyridin-3-yl)oxy)-N-(3-((R)—N—((R)-2-hydroxypropanoyl)-S-methylsulfonimidoyl)phenyl)-5-methyl-6-(trifluoromethyl)pyridazine-4-carboxamide], the IC50 runs as follows: under setting [5], 5 to 50 nM; under setting [6], 5 to 50 nM.

Consider `COc1ccc(Oc2ncc(C(F)(F)F)c(C)c2C(=O)Nc2cccc([S@@](C)(=N)=O)c2)c(C)n1` [Example 116C], for which the IC50 reads like this: under setting [1], 5 to 50 nM; under setting [2], 5 to 50 nM.

`Cc1nc(F)ccc1Oc1cc(C(F)(F)F)ccc1C(=O)Nc1cccc([S@@](C)(=O)=NC(=O)CO)c1` [Example 11B, (R)-2-((6-fluoro-2-methylpyridin-3-yl)oxy)-N-(3-(N-(2-hydroxyacetyl)-S-methylsulfonimidoyl)phenyl)-4-(trifluoromethyl)benzamide]: the concentration for half-maximal inhibition (IC50) was 5 to 50 nM under setting [7] and 5 to 50 nM under setting [8].

Consider `C[S@@](=N)(=O)c1cccc(NC(=O)c2c(Oc3ccc(OC(F)(F)F)cc3)cc(C(F)(F)F)c(Cl)c2F)c1` [Example 50A], for which the 50% inhibitory concentration (IC50) runs as follows: under setting [3], < 5 nM; under setting [4], < 5 nM.

With `Cc1nc(F)ccc1Oc1cc(C(F)(F)F)c(Cl)cc1C(=O)Nc1cccc([S@@](C)(=O)=NC(=O)[C@H](C)O)c1` [Example 3B, 5-chloro-2-((6-fluoro-2-methylpyridin-3-yl)oxy)-N-(3-((R)—N—((S)-2-hydroxypropanoyl)-S-methylsulfonimidoyl)phenyl)-4-(trifluoromethyl)benzamide], the IC50 was < 5 nM under setting [7] and < 5 nM under setting [8].

Regarding `Cc1nc(F)ccc1Oc1ncc(C(F)(F)F)c(C)c1C(=O)Nc1ccc(F)c([S@](C)(=N)=O)c1` (single isomer, unassigned) [Example 15C], the half-maximal inhibitory concentration (IC50) was 5 to 50 nM under setting [1] and 5 to 50 nM under setting [2].

These data come from US20260356804A1, “SODIUM CHANNEL BLOCKING COMPOUNDS, DERIVATIVES THEREOF, AND METHODS OF THEIR USE” (LATIGO BIOTHERAPEUTICS, INC., priority 2022, published 2026).
